Reference: patent publication US8975259B2, “Compositions and methods for inhibiting G protein signaling” (University of Rochester, priority 2007, dated 2015)

Assays:
[1] = target: Gβ1γ2 (UniProt P54311+P63212); set-up: made in house; host or cells: Sf9 insect cells (baculovirus; co-expressed with BirA and (His)6-Gαi1, from which βγ was eluted); conditions: Table 20, competition ELISA for SIGK binding; data from Bonacci et al. (2006); cited from earlier work
[2] = tested on: GRK2 translocation in differentiated HL60 cells; experiment: fMLP-dependent GRK2 translocation to membrane in differentiated HL60 cells; format: cell-based, human; conditions: 10 μM compound, 250 nM fMLP; result in words
Protocol: (§1) Cells were pretreated with DMSO or 10 μM compounds for 5 min prior to stimulation with 250 nM fMLP. […] Normalized peak Ca^2+ responses were pooled from three independent experiments each (mean±SEM). Cells were pretreated with DMSO (▪) or compounds (▴) for 5 min prior to stimulation. FIG. 5C is the same as A except 10 μM M201 was tested. […] Differentiated HL60 cells were treated with 10 μM compound prior to stimulation with 250 nM fMLP. Translocation of endogenous GRK2 was determined by Western blotting with a GRK2 antibody and quantitative chemiluminescence. Data are mean±SEM from 5 experiments, * P<0.05, **P<0.01 ANOVA. […] Differentiated HL60 cells stably over-expressing GFP-PHAkt were treated with 10 μM compound prior to stimulation with 100 nM fMLP. Translocation of GFP-PHAkt to the membrane was determined by Western blotting with an anti-GFP antibody and quantitative chemiluminescence. Data are mean±SEM from 4 experiments. *** P<0.001 ANOVA. […] Differentiated HL60 cells were pretreated with 10 μM of compound prior to stimulation with 1 μM fMLP for 5 min. Levels of phosphorylated and total ERK were determined by Western blotting.

[3] = tested on: ERK1 and ERK2 activation in differentiated HL60 cells; experiment: fMLP-induced ERK1 and ERK2 activation in differentiated HL60 cells; format: cell-based, human; conditions: 10 μM compound, 1 μM fMLP, result in words
Protocol: as §1

[4] = tested on: morphine-dependent antinociception in PLCβ3 −/− mice; experiment: 55° C. tail-flick antinociception in PLCβ3 −/− mice; format: in vivo, mouse; conditions: 100 nmol i.c.v.; result in words
[5] = tested on: human μ opioid receptor (hMOR-CHO cells); experiment: Total inositol phosphate assay in hMOR-CHO cells; format: cell-based; conditions: 10 μM; result in words
Protocol: Chinese hamster ovary (CHO) cells stably expressing either the human κ (hKOR-CHO), δ (hDOR-CHO)(L. Toll, Stanford Research Institute, Palo Alto, Calif.) or μ (hMOR-CHO)(G. Uhl, National Institute on Drug Abuse, Baltimore, Md.) opioid receptor were used in the experiments. Cells in 6-well plates were labeled by adding 4 μCi of [^3H]inositol for 24 hr in inositol-free F-10 media, without serum. After labeling, LiCl was added directly to the labeling media at a final concentration of 10 mM. Ligands or peptides were added at the same time. The final volume of each well was 1 mL. The plates were put back in to the incubator at 37° C. for 30 min after which time the medium was aspirated and the plates were washed twice with 1× PBS. Ice-cold 50 mM formic acid, 1 mL, was added to the plates which were placed in the cold room at 4° C. for 30 min. After the incubation, the contents of the plates were applied to Dowex AG1-X8 columns and allowed to flow all the way through the column. The columns were washed, twice each, with 50 and 100 mM formic acid, for a total of four washes, followed by elution of the IP-containing fraction with 3 mL of 1.2 M ammonium formate/0.1 M formic acid. The eluted fraction was mixed with Scintisafe scintillation fluid, for high salt, and counted. The data are represented as the fold increase over control in total inositol phospates. All experiments were repeated three times and performed in duplicate. Control cells for each experiment were labeled with [^3H]inositol and LiCl, in the same manner as the treatment groups.

[6] = tested on: cAMP generation in adult mouse cardiomyocytes; experiment: cAMP generation in isolated adult mouse cardiomyocytes; format: cell-based; conditions: 10 μM M119 5 min pre-treatment, 100 nM isoproterenol 15 min; result in words
Protocol: Isolated cardiomyocytes were treated with vehicle (V) or 100 nM isoproterenol (I) for 15 minutes in the presence or absence of a 5 minute pre-treatment with 10 μM M119 (M). Forskolin treatment, which directly activates adenylyl cyclase, was used as a control.

[7] = tested on: N-type Ca^2+ channels; experiment: Norepinephrine-dependent inhibition of N-type Ca2+ channels in rat superior cervical ganglion neurons (patch clamp); format: cell-based; conditions: initial analysis; result in words
Protocol: Norepinephrine inhibits N-type Ca^2+ channels through a Gβγ dependent mechanism in SCG neurons and activates GIRK channels when they are heterologously expressed. Neurons are pretreated with varying concentrations of compounds (either in the bath or included in the patch pipette), and NE dependent inhibition of N-type Ca^2+ channels are measured in the whole cell patch clamp configuration. […] This voltage dependence is diagnostic of Gβγ-mediated modulation. The “facilitation” ratio of the postpulse current to the prepulse current (during which inhibition is strong) provides a quantitative measure of the degree of Gβγ modulation. Uninhibited currents generally have a facilitation ratio around 1 so cells pretreated with compounds that inhibit Gβγ interactions with the channel causes the facilitation ratio to approach 1. The effects on responses to other receptors such as transfected μ-opioid receptors or endogenous M4 muscarinic receptors are also examined. GIRK channel regulation is assessed by microinjecting GIRK1/2 subunits in SCG neurons and measuring K^+ channel regulation by NE at varying concentrations of compound. Basal K^+ channel activity and Ca^2+ channel activity is assessed to look for non-specific effects of Gβγ blockers. […]

[8] = 250 mg/kg/day for two weeks, delivered by the NCI; cited from earlier work
[9] = tested on: carrageenan-induced paw edema in mice; experiment: Carrageenan-induced paw edema and neutrophil abundance

Sequence of Gβ1γ2 (P54311 whole entry): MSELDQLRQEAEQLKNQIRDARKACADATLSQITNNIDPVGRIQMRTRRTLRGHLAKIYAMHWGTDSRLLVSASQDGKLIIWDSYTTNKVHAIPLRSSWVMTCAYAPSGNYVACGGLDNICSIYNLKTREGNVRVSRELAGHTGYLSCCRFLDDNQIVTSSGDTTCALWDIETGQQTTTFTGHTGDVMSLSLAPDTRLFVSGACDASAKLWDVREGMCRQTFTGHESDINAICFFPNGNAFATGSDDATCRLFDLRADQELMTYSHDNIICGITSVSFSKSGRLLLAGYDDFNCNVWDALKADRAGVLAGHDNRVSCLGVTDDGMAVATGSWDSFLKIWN
Sequence of Gβ1γ2 (P63212 2-68 limits assumed): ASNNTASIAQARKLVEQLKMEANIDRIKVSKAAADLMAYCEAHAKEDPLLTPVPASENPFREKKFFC

O=C(O)C1CCCCC1c1c2ccc(=O)cc-2oc2cc(O)ccc12 (stereo not shown) [Compound M119B]
IC50 [1]: > 300 µM

O=C(O)C1CCCCC1c1c2ccc(=O)c(O)c-2oc2c(O)c(O)ccc12 (stereo not shown) [Compound M119, cyclohexanecarboxylic acid, 2-(4,5,6-trihydroxy-3-oxo-3H-xanthen-9-yl)-(9cl)]
effect on fMLP-dependent GRK2 translocation to the membrane fraction [2]: substantially inhibited
effect on fMLP-induced activation of ERK1 and ERK2 [3]: did not block
effect on fMLP-induced activation of ERK1 and ERK2 ([3]; listed as NSC119910): without interfering
effect on morphine-dependent antinociception in PLCβ3 −/− mice [4]: no effect
effect of compound by itself on IP production [5]: no effect by itself
effect on DAMGO- and morphine-dependent IP production [5]: significantly attenuated
effect on cAMP generation at baseline and with isoproterenol [6]: enhanced
effect on NE dependent inhibition of N-type Ca^2+ channels [7]: unaffected
toxicity [8]: no reported overt evidence of toxicity

O=C(O)c1ccccc1-c1c2ccc(=O)c(O)c-2oc2c(O)c(O)ccc12 (racemic) [Gallein]
reduction of number of neutrophils in the edematous fluid ([9]; 100 mg/kg i.p., 2 h after carrageenan): approximately half
ED50 ([9]; Mus musculus, ip, read-out: ED50 for inhibiting paw edema): ~20 mg/kg
effect on carrageenan-induced paw edema ([9]; i.p. 1 h before carrageenan, gallein 100 mg/kg, indomethacin 2.5 mg/kg, result in words): reduced paw edema to levels comparable with that of indomethacin
reduction of exudate volume ([9]; i.p. pretreatment, 2 h after carrageenan): approximately 75%
reduction of paw swelling ([9]; oral gavage 30 mg/kg 1 h before carrageenan, 3 h after carrageenan): 40%
effect on paw thickness in the absence of carrageenan ([9]; result in words): no effect
